Reference: ChEMBL document CHEMBL5226342, “Novel Reversible-Binding PET Ligands for Imaging Monoacylglycerol Lipase Based on the Piperazinyl Azetidine Scaffold” (J Med Chem, 2021)

Legend:
[1] = Drug uptake in iv dosed rhesus monkey cortex pretreated with MAGL inhibitor, […] PET imaging based analysis; format: ADME, organism-based, Macaca mulatta; details: in vivo
[2] = Drug uptake in iv dosed Sprague-Dawley rat cerebral cortex measured for 90 mins by PET imaging based analysis; format: ADME, organism-based; details: in vivo, 1.5 h
[3] = Drug uptake in iv dosed CD-1 mouse liver measured after 60 mins by Ex vivo whole body biodistribution based analysis; format: ADME, organism-based; details: 1 h
[4] = Drug uptake in iv dosed rhesus monkey striatum by PET imaging based analysis; format: ADME, organism-based, Macaca mulatta; details: in vivo
[5] = Drug uptake in iv dosed CD-1 mouse kidney measured after 60 mins by Ex vivo whole body biodistribution based analysis; format: ADME, organism-based; details: 1 h
[6] = Drug uptake in iv dosed rhesus monkey cerebellum by PET imaging based analysis; format: ADME, organism-based, Macaca mulatta; details: in vivo
[7] = Drug uptake in iv dosed CD-1 mouse heart measured after 60 mins by Ex vivo whole body biodistribution based analysis; format: ADME, organism-based; details: 1 h
[8] = Drug uptake in iv dosed Sprague-Dawley rat striatum measured for 90 mins by PET imaging based analysis; format: ADME, organism-based; details: in vivo, 1.5 h
[9] = Metabolic stability of the compound in iv dosed Sprague-Dawley rat brain assessed as parent compound remaining measured after 60 mins by radio-HPLC analysis; format: ADME, organism-based; details: read-out: Stability
[10] = Metabolic stability of the compound in iv dosed Sprague-Dawley rat plasma assessed as parent compound remaining measured after 30 mins by radio-HPLC analysis; format: ADME, organism-based; details: read-out: Stability
[11] = Drug uptake in iv dosed CD-1 mouse lung measured after 60 mins by Ex vivo whole body biodistribution based analysis; format: ADME, organism-based; details: 1 h
[12] = Drug uptake in iv dosed rhesus monkey hippocampus measured after 60 mins by PET imaging based analysis; format: ADME, organism-based, Macaca mulatta; details: in vivo, 1 h
[13] = Drug uptake in iv dosed CD-1 mouse pancreas measured after 60 mins by Ex vivo whole body biodistribution based analysis; format: ADME, organism-based; details: 1 h
[14] = Metabolic stability of the compound in iv dosed Sprague-Dawley rat plasma assessed as parent compound remaining measured after 60 mins by radio-HPLC analysis; format: ADME, organism-based; details: read-out: Stability
[15] = Drug uptake in iv dosed rhesus monkey hippocampus pretreated with MAGL inhibitor, […] PET imaging based analysis; format: ADME, organism-based, Macaca mulatta; details: in vivo
[16] = Drug uptake in iv dosed rhesus monkey hippocampus by PET imaging based analysis; format: ADME, organism-based, Macaca mulatta; details: in vivo
[17] = Drug uptake in mouse brain treated with MAGL inhibitor, JNJ-42226314 at 15 mins post-drug administration by PET imaging based analysis; format: ADME, tissue-based; details: in vivo, 0.25 h
[18] = Drug uptake in iv dosed rhesus monkey cerebellum measured after 60 mins by PET imaging based analysis; format: ADME, organism-based, Macaca mulatta; details: in vivo, 1 h
[19] = Drug uptake in iv dosed rhesus monkey cortex measured after 60 mins by PET imaging based analysis; format: ADME, organism-based, Macaca mulatta; details: in vivo, 1 h
[20] = Drug uptake in iv dosed rhesus monkey striatum measured after 60 mins by PET imaging based analysis; format: ADME, organism-based, Macaca mulatta; details: in vivo, 1 h
[21] = Drug uptake in iv dosed rhesus monkey brain by PET imaging based analysis; format: ADME, organism-based, Macaca mulatta; details: in vivo
[22] = Drug uptake in iv dosed Sprague-Dawley rat cerebellum measured for 90 mins by PET imaging based analysis; format: ADME, organism-based; details: in vivo, 1.5 h
[23] = Drug uptake in iv dosed rhesus monkey striatum pretreated with MAGL inhibitor, […] PET imaging based analysis; format: ADME, organism-based, Macaca mulatta; details: in vivo
[24] = Drug uptake in iv dosed Sprague-Dawley rat hippocampus measured for 90 mins by PET imaging based analysis; format: ADME, organism-based; details: in vivo, 1.5 h
[25] = Drug uptake in iv dosed rhesus monkey pons measured after 60 mins by PET imaging based analysis; format: ADME, organism-based, Macaca mulatta; details: in vivo, 1 h
[26] = Metabolic stability of the compound in iv dosed Sprague-Dawley rat brain assessed as parent compound remaining measured after 30 mins by radio-HPLC analysis; format: ADME, organism-based; details: read-out: Stability
[27] = Drug uptake in iv dosed rhesus monkey cerebellum pretreated with MAGL inhibitor, […] PET imaging based analysis; format: ADME, organism-based, Macaca mulatta; details: in vivo
[28] = Drug uptake in iv dosed rhesus monkey pons by PET imaging based analysis; format: ADME, organism-based, Macaca mulatta; details: in vivo
[29] = Drug uptake in iv dosed rhesus monkey cortex by PET imaging based analysis; format: ADME, organism-based, Macaca mulatta; details: in vivo
[30] = Drug uptake in iv dosed CD-1 mouse small intestine measured after 60 mins by Ex vivo whole body biodistribution based analysis; format: ADME, organism-based; details: 1 h
[31] = Drug uptake in iv dosed Sprague-Dawley rat pons measured for 90 mins by PET imaging based analysis; format: ADME, organism-based; details: in vivo, 1.5 h

O=C(c1ccc2c(ccn2-c2ccc([18F])cc2)c1)N1CC(N2CCN(c3ncccn3)CC2)C1
1.2: SUVmax [21]
98%: remaining at 1 h [9]
40%: remaining at 1 h [14]
1.4: SUVmax [2]
Active: Drug uptake [3] | Drug uptake [4] | Drug uptake [6] | Drug uptake [8] | Drug uptake [12] | Drug uptake [16] | Drug uptake [18] | Drug uptake [19] | Drug uptake [20] | Drug uptake [22] | Drug uptake [24] | Drug uptake [28] | Drug uptake [29] | Drug uptake [30] | Drug uptake [31]
Not Active: Drug uptake [1] | Drug uptake [5] | Drug uptake [7] | Drug uptake [11] | Drug uptake [13] | Drug uptake [15] | Drug uptake [17] | Drug uptake [23] | Drug uptake [25] | Drug uptake [27]
95%: remaining at 0.5 h [26]
53%: remaining at 0.5 h [10]
